According to paper PMC10605010, “Immunotechniques for the Group Determination of Macrolide Antibiotics Traces in the Environment Using a Volume-Mediated Sensitivity Enhancement Strategy” (Biosensors, 2023):
Converted amounts (≈) assume the structure as drawn. Read-outs that look alike come from different tables or passages of the source.

Key:
[1] = system: anti-BSA-cmoCLA(ae) antibodies; assay: Indirect competitive ELISA (icELISA), variants by coating antigen; assay type: binding, rabbit; conditions: for CR: CLA = 100
Description: In present work, we investigated and compared several new-designed and previously established coating antigens, which were adsorbed on the 96-well Costar plates from 0.1 to 3.0 µg/mL solutions in CBB (pH 9.6) overnight at 4 °C. […] Solutions of these analytes (1 pg/mL–1 μg/mL) were added to wells of the plate along with anti-cmoCLA antibody in PBS-T with 1%BSA and incubated for 1 h at 25 °C in plate-shaker ST-3 L (ELMI Ltd. laboratory equipment, Riga, Latvia). GAR-HRP was used to detect antigen-antibody formed complexes for 1 h at 37 °C. The activity of the bound enzyme was detected using TMB-substrate mixture, and the intensity of colored product was read at 450 nm using a LisaScan spectrophotometer (Erba Mannheim, Czech Republic). […] The relative antibody-binding absorbance (B/B0) was determined for each concentration of analyte and used to construct a calibration curve as B/B0 versus the concentration. Structurally related macrolides CLA, ESE, ROX, AZI, DIR, TUL, and OLE were analyzed for their cross-reactions. […] Assay sensitivity, limit of detection (LOD), and working range of the assay were set as values of IC50, IC10, and IC20-IC80 range, respectively.

[2] = system: anti-BSA-cmoCLA(ae) antibody; assay: PrG-ELISA, self-assembly on coated protein G, direct competitive; assay type: binding, rabbit; conditions: 1.5 h, coating Ab 200 µL, standard/sample 250 µL
Source text: Another important consideration was the enhancement of the functional activity of antibodies through their oriented immobilization on the surface of polystyrene and its potential impact on the method sensitivity. This was achieved by interacting the adsorbed protein G with the antibody Fc fragments, allowing the antibody-binding fragments to remain spatially accessible. This interaction could be implemented in a step-by-step manner or as a result of self-assembly (Figure 4A). The step-by-step procedure involved the initial formation of a complex between the coated protein G and the antibody (PrG-Ab), followed by a competitive assay step. An alternative self-assembly method implied the competitive interaction of antibody with an analyte (sample) and a tracer in the solution with simultaneous binding to the coated protein G (PrG).

[3] = system: Anti-CLA(IgG) coupled to Sepharose beads; assay: Immunofiltration assay (IFA); assay type: binding, rabbit; conditions: overnight, Ab volume 50 µL, standard/sample 10,000 µL
Description: Sepharose 4B or Sepharose-CL-2B (Pharmacia, Uppsala, Sweden) were washed with water on a porous glass filter and then squeezed out with a soft press from excess moisture. The washed beads (2 g) were placed in a vial with sodium periodate solution (60 mg in 5 mL H2O) and mixed with a rotary mixer (ELMI Ltd. laboratory equipment, Riga, Latvia) for 45 min. An additional 30 min rotation continued after the addition of ethylene glycol (250 µL). The beads were then washed with water and finally with CBB (pH 9.6) squeezed mildly out. Each of the activated sorbents was placed in a vial for mixing with anti-cmoCLA IgG (10 mg) in 2 mL CBB (pH 9.6) for 48 h at 4 °C. The excess antibody was squeezed out. The beads were then washed with water and placed in a sodium borohydride solution (4 mg/4 mL) for 1 h with occasional shaking. After the final washing with water and PSBT, the resulting immune sorbents were stored at 4 °C in 10 mL of PSBT preserved with Merthiolate (1 mg).
To implement these assay formats, the IgG fraction was first isolated from antiserum via the double precipitation method using caprylic acid and ammonium sulfate, described in detail in [22]. The principle of the assays is based on competition between analyte and enzyme-labeled antigen (HRP-aecAZI) for binding to an antibody coated on the plate (dcELISA) or coupled covalently to Sepharose beads. The latter immunosorbent was used in the immunobeads assay (IBA) and immunofiltration assay (IFA).
Immunofiltration assay (IFA). The IFA principle consisted of passing a mixture of standard/sample (10 mL) and HRP-aecAZI through the beads with immobilized antibodies (Anti-CLA(IgG)-S4B or Anti-CLA(IgG)-SCL2B) placed in a homemade column and recording the enzymatic activity of the captured HRP-aecAZI. Briefly, the optimal volume of the prepared immunosorbent was placed on a pre-moistened filter support in a 10 μL filtered micropipette tip, which was then accurately attached to a syringe. This homemade column was filled with 10 mL of the standard analyte or water sample, avoiding the formation of bubbles. […]

[4] = system: anti-BSA-cmoCLA(ae) antibodies; set-up: method as in PMID 25256165; conditions: coating antigen GEL-cmoCLA(ae), homologous; cited from earlier work
[5] = system: antibody, immunogen Commercial; set-up: method as in doi:10.1007/s12161-015-0130-x; conditions: milk; cited from earlier work
[6] = system: antibody, immunogen Commercial; set-up: method as in PMID 26497839; conditions: milk; cited from earlier work
[7] = system: antibody to immunogen BSA-cmoERY(ma); set-up: method as in PMID 25308648; conditions: milk, cited from earlier work
[8] = system: antibody to immunogen BSA-cmoCLA(ae); set-up: method as in PMID 32693204; conditions: breast milk; CLA = 100; cited from earlier work
[9] = coating antigen OVA-aecAZI(dma)

- IC50 [3]: 0.005 ng/mL (≈ 0.00681 nM)
SMILES: CC[C@H]1OC(=O)[C@H](C)[C@@H](O[C@H]2C[C@@](C)(OC)[C@@H](O)[C@H](C)O2)[C@H](C)[C@@H](O[C@@H]2O[C@H](C)C[C@H](N(C)C)[C@H]2O)[C@](C)(O)C[C@@H](C)C(=O)[C@H](C)[C@@H](O)[C@]1(C)O [ERY, Erythromycin]
- IC50 ([1]; coating antigen OVA(pi)-aecAZI): 0.042 ng/mL (≈ 0.0572 nM)
- LOD ([1]; coating antigen OVA(pi)-aecAZI, water): 0.01 ng/mL
- CR ([1]; coating antigen OVA(pi)-aecAZI): 105%
- IC50 [1, 9]: 0.223 ng/mL (≈ 0.304 nM)
- CR [1, 9]: 70.4%
- IC50 ([1]; coating antigen OVA-aecAZI(ga)): 0.049 ng/mL (≈ 0.0668 nM)
- CR ([1]; coating antigen OVA-aecAZI(ga)): 87.8%
- IC50 ([1]; coating antigen OVA-cmoERY(ae)): 0.240 ng/mL (≈ 0.327 nM)
- CR ([1]; coating antigen OVA-cmoERY(ae)): 71.7%
- IC10 (LOD) [2]: 0.007 ng/mL (≈ 0.00954 nM)
- IC20-IC80 (working range) [2]: 0.015 to 0.199 ng/mL
- IC50 [2]: 0.055 ng/mL (≈ 0.0749 nM)
- IC10 (LOD) [3]: 0.001 ng/mL (≈ 0.00136 nM)
- IC20-IC80 (working range) [3]: 0.002 to 0.019 ng/mL
- IC50 [4]: 0.20 ng/mL (≈ 0.273 nM)
- CR [5]: 100%
- LOD [5]: ni//5 ng/mL
- CR [6]: 100%
- LOD [6]: ni//0.13 ng/mL
- CR ([7]; ERY = 100): 100%
- IC50 [7]: 0.94 ng/mL (≈ 1.28 nM)
- LOD [7]: 0.3 ng/mL
- CR [8]: 7.5%
